Experimental data from patent publication US20240261302A1, “METHODS OF TREATING NEURODEGENERATIVE DISEASES OR CONDITIONS” (FloraScience Inc., priority 2023, published 2024).
Entries after “also recorded” stand apart in the source; their conditions may differ.

How the values were obtained:
[1] = tested on: HT22 mt-GFP/mCherry-Parkin cells; assay: Cell viability after RSL3 with/without FCCP (CyQUANT DNA-based assay, fluorescence microscopy), mt-GFP/mCherry-Parkin cells; set-up: species or system mouse
[2] = Iron (Fe^2+) Binding Assay (ferrozine method); conditions: 5 to 10 μM, compared to deferiprone 5 μM
Procedure: Iron (Fe^2+) Binding Assay. Ferrous iron binding was measured by the ferrozine method. Briefly, test samples at the desired concentrations were mixed with 5 μM ferrous sulfate (FeSO4) in 100 μL of 50 mM HEPES, pH 7.5 in a 96-well plate. After 2 min, 50 μL of 5 mM ferrozine was added and the optical absorbance at 562 nm was measured on a SpectraMax M5 microplate reader. Each sample was analyzed in eight wells per independent experiment (n=8). Iron binding capacities were presented as the percentage of the vehicle controls without (100%) or with iron (0%).

[3] = tested on: HT22 mt-GFP cells; assay: Mitochondrial Network Morphology Analysis; format: cell-based, mouse
Procedure: Mitochondrial Network Morphology Analysis. HT22 mt-GFP cells were seeded at 20,000 cells/well on glass coverslips in 24-well plates in DMEM supplemented with 10% FBS and 1% antibiotics. The following day, the cells were treated with the test compounds for the desired period of time. After rinsing with PBS, the cells on glass coverslips were fixed with 4% paraformaldehyde (pH 7.4) for 10 min at 37° C. After additional PBS rinses, the coverslips were mounted onto glass microslides with Fluoro-Gel (Electron Microscopy Sciences, Cat #17985-10). Z-stack images of fixed cells were acquired on a Zeiss LSM 880 rear port laser scanning confocal and Airyscan FAST microscope with ZEN Black software to trace and render cells in 3D. The mitochondrial network morphology parameters (n=20-25 cells/condition) were scored and analyzed with the MiNA module of ImageJ/Fiji software.

[4] = tested on: BV2 microglia; assay: Mitochondrial Membrane Potential Assay (JC-10) in BV2 cells; format: cell-based; conditions: 4 hr
Procedure: BV2 microglial cells were cultured in low glucose DMEM supplemented with GlutaMAX (Invitrogen, Cat #10567014, Carlsbad, CA), 1 mM sodium pyruvate, 10% FBS, and 1% antibiotics including penicillin and streptomycin. Cell cultures were incubated at 37° C. in a fully humidified atmosphere containing 10% CO2.
Mitochondrial Membrane Potential Assay. Cells seeded at 5,000 cells/well onto 96-well black walled plates were treated with test compounds at the desired concentrations under the culture condition described above. The mitochondrial uncoupler FCCP at 2 μM was used as a reference control. After the desired treatments for 4 hr, the cells were subjected to a JC-10 mitochondrial membrane potential assay according to the manufacturer's instruction. Fluorescence intensities (Ex/Em=490/525 nm, and Ex/Em=540/590 nm) of each well were monitored on a SpectraMax M5 microplate reader. The ratio of fluorescence intensity (590/525 nm) was used to determine the mitochondrial membrane potential (ΔΨm). Decreasing ratios indicate mitochondrial membrane depolarization. Samples were analyzed in eight to sixteen wells per independent experiment (n=8-16). Results were verified by live-cell imaging under a fluorescence microscope.

[5] = tested on: HT22 cells; assay: Oxytosis Assay (glutamate-induced cell death, MTT); format: cell-based, mouse
Procedure: Oxytosis Assay. HT22 cells were seeded at 3,000 cells/well in 96-well tissue culture plates in DMEM plus 10% FBS and 1% antibiotics. After 24 hr of plating, the cells were pretreated with different concentrations of the test compounds or a vehicle control for 1 hr followed by coincubation with 5 mM glutamate to initiate the cell death cascade. After 16 hr of treatment, cell viability was measured by the 3−(4,5-dimethylthiazol-2-yl)-2,5-diphenyltetrazolium bromide (MTT) assay. Optical absorbance was measured at 570 nm on a SpectraMax M5 microplate reader. Samples were analyzed in eight to sixteen wells per independent experiment (n=8-16). Results were presented as the percentage of the controls with vehicle alone.

[6] = tested on: HT22 cells; assay: Ferroptosis Assay (RSL3-induced cell death, MTT); format: cell-based, mouse; conditions: for EC50: Mus musculus, HT-22, MTT
Procedure: Ferroptosis Assay: HT22 cells were seeded at 3,000 cells/well in 96-well tissue culture plates in DMEM plus 10% FBS and 1% antibiotics. After 24 hr of plating, the cells were pretreated with different concentrations of test compounds or a vehicle control for 1 hr followed by coincubation with 50 nM RSL3 to induce the cell death cascade. After 16 hr of treatment, cell viability was measured by the MTT assay. Optical absorbance was measured at 570 nm on a SpectraMax M5 microplate reader. Samples were analyzed in eight to sixteen wells per independent experiment (n=8-16). Results were presented as the percentage of the controls with vehicle alone.

[7] = tested on: CB1/CB2 receptors; conditions: cited from earlier work
[8] = tested on: primary cortical neurons; assay: Neuroprotection against RSL3 in primary neurons; format: cell-based, rat; conditions: CBN 10 μM, data not shown
Procedure: Embryonic Cortical Neuron Extraction. Primary cortical neurons were prepared from embryonic day 17 Sprague-Dawley rat pups and used at 7 days in vitro as previously described (7 DIV). Neurons were dissociated from the cortex and maintained in Neurobasal-A medium (Invitrogen, Cat #10888022, Carlsbad, CA) supplemented with B-27 Supplement (Invitrogen, Cat #17504044, Carlsbad, CA), 2 mM glutamine, and 1% antibiotics including penicillin and streptomycin. Cell cultures were incubated at 37° C. in a fully humidified atmosphere containing 10% CO2. All animal procedures were approved by the Salk Institute's Institutional Animal Care and Use Committee.

With `CCCCCc1cc(O)c2c(c1)OC(C)(C)c1ccc(C)cc1-2` [CBN, 6,6,9-Trimethyl-3-pentyl-benzo[c]chromen-1-ol] the “protection against RSL3-induced cell death, no FCCP pretreatment” value ([1]; 16 hr) was “strong and equivalent protection”, the “protection against RSL3 after FCCP pretreatment (mitochondria-depleted cells)” value ([1]; FCCP 5 μM 24 hr, then 16 hr) was “failed to protect; also recorded: did not protect” and the “cell numbers after FCCP pretreatment, co-treatment with compound” value ([1]; FCCP 24 hr, CBN additional 16 hr) was “did not further change the cell numbers”. For the same molecule, the “Fe^2+ binding” value [2] was “did not show significant Fe^2+ binding”, the RSL3-induced mitochondrial fragmentation ([3]; 50 nM RSL3) was “prevent the mitochondrial fragmentation” and the “individual and summed branch lengths of mitochondria” value ([3]; CBN alone) was “significantly increased”. The “mitochondrial footprints and network branches” value ([3]; CBN alone) was “no apparent effects”, the “decrease of ΔΨm” value [4] was “also observed” and the glutamate-induced morphological changes ([5]; 5 μM pretreatment 1 hr, then 5 mM glutamate 16 hr) was “effectively prevented”. For the same molecule, the EC50 ([5]; Mus musculus, HT-22, 16 h, read-out: EC50 against oxytosis/ferroptosis induced by 5 mM glutamate (FIG. 2G)) was 1890 nM, the RSL3-induced morphological changes ([6]; 5 μM pretreatment 1 hr, then 50 nM RSL3 16 hr) was “effectively prevented” and the “neuroprotection against 50 nM RSL3” value ([6]; HT22 cells, CBN 10 μM, data not shown) was about 100%. For the same molecule, the EC50 ([6]; HT22 cells, 1 hr pretreatment, 50 nM RSL3, 16 hr, read-out: Observed EC50 RSL3) was 390 nM, the EC50 ([6]; HT22 cells, 16 hr, read-out: EC50 against oxytosis/ferroptosis induced by 50 nM RSL3 (FIG. 2H)) was 690 nM and the “activity at CB1/CB2 receptors” value [7] was “weak agonist”. The “binding affinities compared to THC, fold lower” value ([7]; tissue- or cell-type specific) was 10 to 100 fold and the “neuroprotection against 50 nM RSL3” value [8] was about 100%.
